Measurements published in the supplement of paper PMC10307832.

Experiments:
Test in all cases: relative viability (nuclei count vs DMSO), 5 days (fraction); higher = more cells survive
[1] = compound: COC1=C(C=C(C=C1)C2=CC3=NC=CN3C(=N2)NC4=C(C=CC=N4)C(=O)N)OC [BAY61-3606]
How it was run: (§1)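 Cells of lung cancer lines were placed in 1536-well plates and kept overnight at 37 °C. Pinning then delivered five library-drug doses (not always all listed), spaced by √10, onto plates anchored with vehicle, and the cells were left 5 days without changing medium. One step fixed, permeabilised and stained them with Hoechst, and MetaXpress counted nuclei in 4× images. Viability, as a median over plates, is treated-well nuclei divided by vehicle-well nuclei, with acceptance only at control CV below 25% and at least one doubling.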

[2] = compound: COc1cccc2c1C(=O)c1c(O)c3c(c(O)c1C2=O)C[C@@](O)(C(=O)CO)C[C@@H]3O[C@H]1C[C@H](N)[C@H](O)[C@H](C)O1 [Doxorubicin]
How it was run: as §1

[3] = compound: COc1cccc2c1C(=O)c1c(O)c3c(c(O)c1C2=O)C[C@@](O)(C(=O)CO)C[C@@H]3O[C@H]1C[C@H](N)[C@H](O)[C@H](C)O1 [Doxorubicin] + CC1(C)CCC(c2ccc(Cl)cc2)=C(CN2CCN(c3ccc(C(=O)NS(=O)(=O)c4ccc(N[C@H](CCN5CCOCC5)CSc5ccccc5)c(S(=O)(=O)C(F)(F)F)c4)cc3)CC2)C1 [Navitoclax] (partner 0.5 µM)
How it was run: (§2)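 Relative viability equals treated-well nuclei counts divided by vehicle-well nuclei counts. Counts came from 4× images of lung cancer cell lines grown in 1536-well plates for 5 days after pin-tool dosing on the day after seeding. Dosing used one drug alone or a fixed anchor-drug dose plus five library-drug doses (not always all listed) in √10 steps, and values are medians of duplicate plates.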

[4] = compound: COC1=C(C=C(C=C1)C2=CC3=NC=CN3C(=N2)NC4=C(C=CC=N4)C(=O)N)OC [BAY61-3606] + CC(=O)Nc1cccc(-n2c(=O)n(C3CC3)c(=O)c3c(Nc4ccc(I)cc4F)n(C)c(=O)c(C)c32)c1 [Trametinib] (partner 0.02 µM)
How it was run: as §2

Cell Line	relative viability ([1]; 0.02 µM)	relative viability ([1]; 0.06325 µM)	relative viability ([1]; 0.2 µM)	relative viability ([1]; 0.6325 µM)	relative viability ([1]; 2 µM)	relative viability ([2]; 0.001 µM)	relative viability ([2]; 0.003162 µM)	relative viability ([2]; 0.01 µM)	relative viability ([2]; 0.03162 µM)	relative viability ([2]; 0.1 µM)	relative viability ([3]; first compound 0.001 µM)	relative viability ([3]; first compound 0.003162 µM)	relative viability ([3]; first compound 0.01 µM)	relative viability ([3]; first compound 0.03162 µM)	relative viability ([3]; first compound 0.1 µM)	relative viability ([4]; first compound 0.02 µM)	relative viability ([4]; first compound 0.06325 µM)	relative viability ([4]; first compound 0.2 µM)	relative viability ([4]; first compound 0.6325 µM)	relative viability ([4]; first compound 2 µM)
NCI-H2347	1.03	1.05	1.04	1	1.05	0.992	1.08	0.945	0.945	0.838	0.628	0.768	0.77	0.71	0.85	0.287	0.332	0.285	0.296	0.244
NCI-H1666	1.14	0.996	0.958	1.04	1.01	0.902	0.996	0.814	0.548	0.525	0.882	0.953	0.55	0.282	0.275	0.828	0.973	0.822	0.792	0.768
NCI-H1792	0.982	0.853	1	0.885	1.03		0.885	0.964	0.903	0.747	0.634	0.556	0.62	0.582	0.597	0.574	0.361	0.353	0.412	0.396
PC-3 [JPC-3]	1.04	1	1	1.02	0.939	1.08	1.05	1.04	0.998	0.982	0.746	0.79	0.703	0.802	0.819	0.772	0.668	0.741	0.726	0.654
HARA	1.03	0.927	0.945	0.953	0.866	0.983	1.12	1.07	0.945	0.955	1.17	1.09	1.18	1.05	1.15	0.6	0.52	0.781	0.724	0.54
NCI-H727	1	0.923	0.983	1.01	0.901	0.874	0.971	0.76	0.928	0.812	0.402	0.474	0.492	0.462	0.455	0.392	0.382	0.423	0.42	0.387
NCI-H1650	1.06	0.883	0.964	1.11	0.527	0.823	0.809	0.481	0.255	0.159	1.11	1.18	1.11	0.33	0.203	0.661	0.514	0.595	0.569	0.29
NCI-H2405	1.07	0.984	0.977	0.968	0.84	0.972	1.04	1.08	0.997	0.626		0.779	0.851	0.639	0.493	0.637	0.559	0.711	0.728	0.518
LOU-NH91	0.991	0.816	0.965	0.996	0.862	0.692	0.948	1.05	0.914	0.761		0.561	0.711	0.444	0.405	0.842	0.766	0.826	0.794	0.706
